Source: article PMC9413440, “An Iterative Approach Guides Discovery of the FabI Inhibitor Fabimycin, a Late-Stage Antibiotic Candidate with In Vivo Efficacy against Drug-Resistant Gram-Negative Infections” (ACS Central Science, 2022)

Columns and labels:
[1] = format: in vitro ADME
Description: (§1) Selection of resistant mutants
(§2) Resistant mutants were generated using the large inoculum method. Briefly, S. aureus 29213, E. coli MG1655, and A. baumannii 19606 (~1 x 1010 CFUs) was plated on 100-mm plates (E. coli and A. baumannii) or 150-mm plates (S. aureus) of MH agar containing either 128, 64, or 32 µg/mL fabimycin (for gram-negatives) or 0.125, 0.062, and 0.031 µg/mL fabimycin (for S. aureus). Plates were incubated at 37 °C for 48 h and counted for the presence of colony forming units.
Glycerol stocks of selected colonies were made, and resistant colonies confirmed by growing on agar plates containing the same concentration of fabimycin that they were generated at.
Sequencing of bacterial fabI
The FabI gene was amplified by PCR. Fabimycin-resistant colonies were picked and diluted in 100 µL sterile, nuclease-free H2O. […] A 10 µL portion of PCR reaction mixture was analyzed by agarose gel electrophoresis to confirm the single 1.4-kilobase pair product. […]
Candidate drugs were incubated with plasma and parent drug levels were monitored at various time points (generally t=0, 10, 20, 30, and 60 minutes) to determine the drug’s half-life in the presence of the chosen system. […] The supernatant was collected after centrifugation, and the sample analyzed by LC-MS where the percentage of compound remaining is plotted vs time to determine the drug’s half-life. […]

S. aureus ATCC 29213 = format: cell-based, Staphylococcus aureus
Description: as §1, §2
Glycerol stocks of selected colonies were made, and resistant colonies confirmed by growing on agar plates containing the same concentration of fabimycin that they were generated at. […]
Forward 5’-GGG-GCC-AGC-GTT-TCT-TTT-TC-3‘ Parker, 20203
Reverse 5’-AAA-CAT-GGA-GAC-GGT-GCT-GG
Forward 5’-GTG-AGA-TCG-GCA-TGA-CAC-AA-3’ Lin, 20179
Reverse 5’-CTG-AAG-TCC-GCT-ACC-GTT-AT-3’
Compound stability in mammalian plasma […]
Each drug is tested […]
in duplicate. Compounds were diluted from 10 mM DMSO stocks to 1 µM in a 100 mM pH 7.4 phosphate buffer and incubated at 37 °C with 0.5 mg/mL of human, rat, or mouse plasma (BioreclamationIVT, Baltimore, MD). […]
Compound plasma protein binding […]
The standard assay involves equilibrium dialysis, in which compound is allowed to equilibrate between a protein-containing compartment from a protein-free compartment. Each

HFF-1, A549, HepG2 cells = settings: 72 h
Description: HFF-1 cells (newborn) were obtained from the ATCC. HFF-1 cells were grown in Dulbecco’s Modified Eagle’s minimum essential medium with 15% fetal bovine serum (Gemini Benchmark; catalogue number: 100-106), 100 µg/mL penicillin and 100 µg/mL streptomycin. A549 cells ([…], adult) were obtained from the ATCC. A549 cells were grown in Roswell Park Memorial Institute (RPMI) media with 100 µg/mL penicillin and 10% fetal bovine serum (FBS). HepG2 cells were authenticated by the University of Arizona Genetics Core using an autosomal STR profile. HepG2 cells were grown in Dulbecco’s Modified Eagle’s minimum essential medium with 10% fetal bovine serum. All cells were cultured at 37 °C under a 5% CO2 environment. Cell lines were authenticated by a commercial vendor and inspected visually in house. Cell lines were not tested for Mycoplasma contamination. The media was prepared by the University of Illinois School of Chemical Sciences Cell Media Facility.
H. sapiens HFF-1, A549, and HepG2 cells were seeded (3,000-6,000 cells/well) in a 96-well plate (Greiner Bio-One;

SMILES: Cc1c(CN(C)C(=O)/C=C/c2cnc3c(c2)CC[C@H](N)C(=O)N3)oc2ccccc12 [fabimycin]
- plasma protein binding [1]: lower plasma protein binding relative to Debio-1452
- frequency of resistance (S. aureus ATCC 29213): 1.8 × 10^–10 to 5.2 × 10^–10
- mutant prevention concentration (MPC) (S. aureus ATCC 29213): 0.125 µg/mL
- cytotoxicity against human cell lines (HFF-1, A549, HepG2 cells): less cytotoxic relative to Debio-1452-NH3
